Measurements: article PMC2775898 (The EMBO Journal, 2009)
Where a SMILES comes first, the peptide text is derived from it. The star is where a group is joined. Biotin = O=C1N[C@H]2[C@H](CS[C@H]2CCCCC(=O)*)N1

Target: T1, Tiam2 PHCCEx domain (Mus musculus, UniProt Q6ZPF3)
T1 sequence (Q6ZPF3 500-757): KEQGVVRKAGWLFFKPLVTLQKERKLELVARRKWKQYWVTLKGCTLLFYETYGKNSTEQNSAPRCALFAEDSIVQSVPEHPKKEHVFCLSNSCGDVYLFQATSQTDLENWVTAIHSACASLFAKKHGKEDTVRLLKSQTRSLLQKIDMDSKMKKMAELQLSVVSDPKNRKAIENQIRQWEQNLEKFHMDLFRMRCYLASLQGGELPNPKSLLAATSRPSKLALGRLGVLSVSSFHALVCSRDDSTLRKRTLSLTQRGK
Test: Equilibrium SPR binding of biotinylated peptides to the Tiam2 PHCCEx domain
Details: N-terminal biotinylated peptide immobilized

Row | Binding to the Tiam2 PHCCEx domain (in words) | SMILES
1 | in the micromolar range | CC[C@H](C)[C@H](NC(=O)[C@H](CC(=O)O)NC(=O)[C@H](CO)NC(=O)[C@@H]1CCCN1C(=O)[C@H](CCC(=O)O)NC(=O)[C@@H](NC(=O)CNC(=O)[C@H](C)NC(=O)CCCC[C@@H]1SC[C@@H]2NC(=O)N[C@@H]21)[C@@H](C)O)C(=O)N[C@H](C(=O)N[C@H](C(=O)N1CCC[C@H]1C(=O)N[C@@H](CC(C)C)C(=O)N[C@@H](CCCNC(=N)N)C(=O)N[C@H](C(=O)N[C@H](C(=O)N[C@@H](CCC(=O)O)C(=O)N[C@@H](CC(N)=O)C(=O)N[C@@H](CC(N)=O)C(=O)N[C@@H](Cc1ccc(O)cc1)C(=O)O)[C@@H](C)O)[C@@H](C)O)[C@@H](C)CC)[C@@H](C)CC [ephrin B1 294–312] (Biotin-AGTEPSDIIIPLRTTENNY-OH; C-terminus assumed)
2 | in the micromolar range | CC[C@H](C)[C@H](NC(=O)[C@@H](NC(=O)[C@H](CC(=O)O)NC(=O)[C@H](CO)NC(=O)[C@@H]1CCCN1C(=O)[C@H](CCC(=O)O)NC(=O)[C@H](CO)NC(=O)CNC(=O)[C@H](CC(N)=O)NC(=O)CCCC[C@@H]1SC[C@@H]2NC(=O)N[C@@H]21)C(C)C)C(=O)N[C@H](C(=O)N1CCC[C@H]1C(=O)N[C@@H](CC(C)C)C(=O)N[C@@H](CCCNC(=N)N)C(=O)N[C@H](C(=O)N[C@@H](C)C(=O)N[C@@H](CC(=O)O)C(=O)N[C@@H](CO)C(=O)N[C@H](C(=O)N[C@@H](Cc1ccccc1)C(=O)O)C(C)C)[C@@H](C)O)[C@@H](C)CC [ephrin B2 285–302] (Biotin-NGSEPSDVIIPLRTADSVF-OH; C-terminus assumed)
3 | weaker binding | CC[C@H](C)[C@H](NC(=O)CNC(=O)[C@H](CC(C)C)NC(=O)[C@H](CCC(=O)O)NC(=O)CNC(=O)[C@@H]1CCCN1C(=O)[C@H](CCC(=O)O)NC(=O)[C@H](C)NC(=O)[C@H](CCC(=O)O)NC(=O)[C@H](CCCNC(=N)N)NC(=O)CCCC[C@@H]1SC[C@@H]2NC(=O)N[C@@H]21)C(=O)N[C@@H](C)C(=O)N[C@@H](CC(C)C)C(=O)N[C@@H](CCCNC(=N)N)C(=O)NCC(=O)NCC(=O)NCC(=O)N[C@H](C(=O)N[C@@H](C)C(=O)N[C@@H](CC(=O)O)C(=O)O)[C@@H](C)O [ephrin B3 286–303] (Biotin-REAEPGELGIALRGGGTAD-OH; C-terminus assumed)
